Results taken from patent publication US12365696B2, “Small-molecule focal adhesion kinase (FAK) inhibitors” (DANA-FARBER CANCER INSTITUTE, INC., priority 2019, dated 2025).
Where two headings read alike, the source gives them in different places.

Tests used:
Assay in all cases: KINOMEscan
Assay type in all cases: binding
ULK3 = ULK3 (Homo sapiens (Human), UniProt Q6PHR2); settings: ULK3, 10000 nM; read-out: Percent Control
RIPK1 = RIPK1 (Homo sapiens (Human), UniProt Q13546); settings: RIPK1, 10000 nM; read-out: Percent Control
RIOK1 = RIOK1 (Homo sapiens (Human), UniProt Q9BRS2); settings: RIOK1, 10000 nM; read-out: Percent Control
[1] = target: TYK2(JH2domain-pseudokinase) (Homo sapiens (Human), UniProt P29597); settings: 10000 nM, read-out: Percent Control
AXL = AXL (Homo sapiens (Human), UniProt P30530); settings: 10000 nM, read-out: Percent Control
MELK = MELK (Homo sapiens (Human), UniProt Q14680); settings: 10000 nM, read-out: Percent Control
BTK = BTK (Homo sapiens (Human), UniProt Q06187); settings: 10000 nM, read-out: Percent Control
PIK4CB = PIK4CB (Homo sapiens (Human), UniProt Q9UBF8); settings: 10000 nM, read-out: Percent Control
STK39 = STK39 (Homo sapiens (Human), UniProt Q9UEW8); settings: STK39, 10000 nM; read-out: Percent Control
MRCKB = MRCKB (Homo sapiens (Human), UniProt Q9Y5S2); settings: 10000 nM, read-out: Percent Control
TEC = TEC (Homo sapiens (Human), UniProt P42680); settings: 10000 nM, read-out: Percent Control
PHKG1 = PHKG1 (Homo sapiens (Human), UniProt Q16816); settings: PHKG1, 10000 nM; read-out: Percent Control
PIK3CA(H1047L) = PIK3CA(H1047L) (Homo sapiens (Human), UniProt P42336, H1047L); settings: 10000 nM, read-out: Percent Control
NEK4 = NEK4 (Homo sapiens (Human), UniProt P51957); settings: NEK4, 10000 nM; read-out: Percent Control
CDK2 = CDK2 (Homo sapiens (Human), UniProt P24941); settings: CDK2, 10000 nM; read-out: Percent Control
HIPK4 = HIPK4 (Homo sapiens (Human), UniProt Q8NE63); settings: HIPK4, 10000 nM; read-out: Percent Control
CDK4-cyclinD3 = CDK4-cyclinD3 (Homo sapiens (Human), UniProt P11802); settings: CDK4-cyclinD3, 10000 nM; read-out: Percent Control
BMPR1B = BMPR1B (Homo sapiens (Human), UniProt O00238); settings: 10000 nM, read-out: Percent Control
PAK3 = PAK3 (Homo sapiens (Human), UniProt O75914); settings: PAK3, 10000 nM; read-out: Percent Control
ROS1 = ROS1 (Homo sapiens (Human), UniProt P08922); settings: ROS1, 10000 nM; read-out: Percent Control
MUSK = MUSK (Homo sapiens (Human), UniProt O15146); settings: 10000 nM, read-out: Percent Control
AKT1 = AKT1 (Homo sapiens (Human), UniProt P31749); settings: AKT1, 10000 nM; read-out: Percent Control
TAK1 = TAK1 (Homo sapiens (Human), UniProt O43318); settings: TAK1, 10000 nM; read-out: Percent Control
EGFR(G719S) = EGFR(G719S) (Homo sapiens (Human), UniProt P00533, G719S); settings: 10000 nM, read-out: Percent Control
MEK6 = MEK6 (Homo sapiens (Human), UniProt P52564); settings: MEK6, 10000 nM; read-out: Percent Control
PIK3CA(E545A) = PIK3CA(E545A) (Homo sapiens (Human), UniProt P42336, E545A); settings: 10000 nM, read-out: Percent Control
EPHB2 = EPHB2 (Homo sapiens (Human), UniProt P29323); settings: EPHB2, 10000 nM; read-out: Percent Control
TRKB = TRKB (Homo sapiens (Human), UniProt Q16620); settings: 10000 nM, read-out: Percent Control
EIF2AK1 = EIF2AK1 (Homo sapiens (Human), UniProt Q9BQI3); settings: EIF2AK1, 10000 nM; read-out: Percent Control
[2] = target: ABL1(Q252H)-phosphorylated (Homo sapiens (Human), UniProt P00519, Q252H); settings: 10000 nM, read-out: Percent Control
FYN = FYN (Homo sapiens (Human), UniProt P06241); settings: 10000 nM, read-out: Percent Control
MAPKAPX5 = MAPKAPX5 (Homo sapiens (Human), UniProt Q8IW41); settings: read-out: Percent Control
[3] = target: ABL1(T315I)-phosphorylated (Homo sapiens (Human), UniProt P00519, T315I); settings: 10000 nM, read-out: Percent Control
[4] = target: JAK2(JH1domain-catalytic) (Homo sapiens (Human), UniProt O60674); settings: 10000 nM, read-out: Percent Control
[5] = target: RSK1(Kin.Dom.2-C-terminal) (Homo sapiens (Human), UniProt Q15418); settings: 10000 nM, read-out: Percent Control
Chain of RSK1(Kin.Dom.2-C-terminal) (Q15418 418-675): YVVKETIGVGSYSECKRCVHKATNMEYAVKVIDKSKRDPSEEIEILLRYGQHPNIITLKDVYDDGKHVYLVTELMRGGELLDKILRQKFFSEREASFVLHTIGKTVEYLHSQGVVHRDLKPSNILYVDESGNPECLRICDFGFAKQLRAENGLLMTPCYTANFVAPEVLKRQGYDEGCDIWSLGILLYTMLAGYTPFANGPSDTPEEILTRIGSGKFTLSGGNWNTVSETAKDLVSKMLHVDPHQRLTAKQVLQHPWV

Chain of PIK4CB (Q9UBF8 whole entry): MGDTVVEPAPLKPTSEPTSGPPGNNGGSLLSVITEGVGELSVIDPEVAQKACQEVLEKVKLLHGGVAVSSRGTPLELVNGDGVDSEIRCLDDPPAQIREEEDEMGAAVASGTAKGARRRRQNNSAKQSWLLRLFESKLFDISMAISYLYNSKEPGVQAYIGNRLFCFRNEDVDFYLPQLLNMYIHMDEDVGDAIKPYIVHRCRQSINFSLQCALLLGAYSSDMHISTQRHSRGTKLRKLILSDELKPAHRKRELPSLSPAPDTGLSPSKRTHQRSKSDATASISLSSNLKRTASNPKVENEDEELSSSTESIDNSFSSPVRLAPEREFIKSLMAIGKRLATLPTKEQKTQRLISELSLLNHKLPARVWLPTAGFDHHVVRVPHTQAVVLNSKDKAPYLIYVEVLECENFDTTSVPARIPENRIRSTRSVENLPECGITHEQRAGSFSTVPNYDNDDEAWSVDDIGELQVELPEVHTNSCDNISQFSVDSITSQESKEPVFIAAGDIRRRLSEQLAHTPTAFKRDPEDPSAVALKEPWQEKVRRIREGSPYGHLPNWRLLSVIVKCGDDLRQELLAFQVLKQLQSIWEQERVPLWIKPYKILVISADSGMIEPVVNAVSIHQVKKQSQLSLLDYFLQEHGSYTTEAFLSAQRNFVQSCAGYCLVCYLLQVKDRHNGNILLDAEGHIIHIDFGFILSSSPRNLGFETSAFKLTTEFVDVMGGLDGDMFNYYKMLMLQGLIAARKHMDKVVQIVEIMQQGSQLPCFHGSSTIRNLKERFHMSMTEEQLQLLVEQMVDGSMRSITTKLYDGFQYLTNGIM
Chain of MELK (Q14680 whole entry): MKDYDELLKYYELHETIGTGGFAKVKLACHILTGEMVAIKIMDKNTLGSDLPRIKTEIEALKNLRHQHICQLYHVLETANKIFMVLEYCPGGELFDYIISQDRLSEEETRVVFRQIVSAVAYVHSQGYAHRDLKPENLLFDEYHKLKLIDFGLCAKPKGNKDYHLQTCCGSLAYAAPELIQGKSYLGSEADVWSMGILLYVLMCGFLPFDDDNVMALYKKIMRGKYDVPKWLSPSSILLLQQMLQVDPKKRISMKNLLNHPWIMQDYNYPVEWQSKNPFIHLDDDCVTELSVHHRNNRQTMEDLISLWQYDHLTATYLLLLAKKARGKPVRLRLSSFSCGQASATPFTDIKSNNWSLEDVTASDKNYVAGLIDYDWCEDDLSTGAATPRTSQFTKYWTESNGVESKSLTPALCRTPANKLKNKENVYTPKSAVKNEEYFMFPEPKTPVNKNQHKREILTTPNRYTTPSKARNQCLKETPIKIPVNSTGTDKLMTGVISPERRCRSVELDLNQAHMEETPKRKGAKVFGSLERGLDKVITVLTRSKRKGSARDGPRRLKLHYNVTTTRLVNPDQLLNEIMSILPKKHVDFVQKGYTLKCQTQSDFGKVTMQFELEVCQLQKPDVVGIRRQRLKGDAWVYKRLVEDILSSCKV
Chain of JAK2(JH1domain-catalytic) (O60674 849-1124): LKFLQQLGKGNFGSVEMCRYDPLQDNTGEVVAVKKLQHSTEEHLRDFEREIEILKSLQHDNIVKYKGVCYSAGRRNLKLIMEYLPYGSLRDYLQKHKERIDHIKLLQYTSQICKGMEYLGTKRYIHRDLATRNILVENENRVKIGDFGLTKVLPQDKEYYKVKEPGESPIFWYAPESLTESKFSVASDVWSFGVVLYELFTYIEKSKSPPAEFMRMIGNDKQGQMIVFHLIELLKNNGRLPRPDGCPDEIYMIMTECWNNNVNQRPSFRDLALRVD
Chain of BMPR1B (O00238 14-502): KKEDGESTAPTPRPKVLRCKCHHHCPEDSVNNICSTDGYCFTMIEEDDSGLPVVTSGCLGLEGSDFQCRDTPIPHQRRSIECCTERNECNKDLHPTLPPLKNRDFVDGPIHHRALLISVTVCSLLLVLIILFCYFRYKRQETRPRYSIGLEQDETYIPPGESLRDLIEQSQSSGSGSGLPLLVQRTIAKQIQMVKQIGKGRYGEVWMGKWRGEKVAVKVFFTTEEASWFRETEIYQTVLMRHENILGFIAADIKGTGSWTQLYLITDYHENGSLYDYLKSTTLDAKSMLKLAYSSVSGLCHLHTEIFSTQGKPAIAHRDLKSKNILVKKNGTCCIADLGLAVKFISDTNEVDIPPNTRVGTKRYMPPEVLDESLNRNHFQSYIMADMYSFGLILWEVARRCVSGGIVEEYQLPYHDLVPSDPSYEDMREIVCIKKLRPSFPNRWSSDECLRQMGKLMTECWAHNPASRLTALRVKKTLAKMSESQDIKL
Chain of RIPK1 (Q13546 whole entry): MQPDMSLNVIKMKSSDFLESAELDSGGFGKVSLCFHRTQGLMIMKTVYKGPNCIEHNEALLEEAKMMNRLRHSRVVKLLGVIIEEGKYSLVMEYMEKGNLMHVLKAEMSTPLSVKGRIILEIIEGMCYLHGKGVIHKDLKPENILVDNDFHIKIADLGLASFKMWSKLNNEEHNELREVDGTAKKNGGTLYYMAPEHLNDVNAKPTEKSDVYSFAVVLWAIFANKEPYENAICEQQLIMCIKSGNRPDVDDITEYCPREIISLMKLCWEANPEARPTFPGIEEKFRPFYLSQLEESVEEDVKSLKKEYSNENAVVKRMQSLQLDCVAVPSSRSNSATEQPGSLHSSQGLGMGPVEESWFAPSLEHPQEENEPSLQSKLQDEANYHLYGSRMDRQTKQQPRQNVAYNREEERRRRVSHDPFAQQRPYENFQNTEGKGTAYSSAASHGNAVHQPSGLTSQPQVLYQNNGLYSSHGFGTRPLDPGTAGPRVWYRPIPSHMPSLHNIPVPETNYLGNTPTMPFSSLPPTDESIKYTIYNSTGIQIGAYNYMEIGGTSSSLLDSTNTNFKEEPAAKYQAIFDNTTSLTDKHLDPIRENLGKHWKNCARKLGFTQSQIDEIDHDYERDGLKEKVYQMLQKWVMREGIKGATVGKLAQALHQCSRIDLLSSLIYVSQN
Chain of PIK3CA(E545A) (P42336 whole entry E545A): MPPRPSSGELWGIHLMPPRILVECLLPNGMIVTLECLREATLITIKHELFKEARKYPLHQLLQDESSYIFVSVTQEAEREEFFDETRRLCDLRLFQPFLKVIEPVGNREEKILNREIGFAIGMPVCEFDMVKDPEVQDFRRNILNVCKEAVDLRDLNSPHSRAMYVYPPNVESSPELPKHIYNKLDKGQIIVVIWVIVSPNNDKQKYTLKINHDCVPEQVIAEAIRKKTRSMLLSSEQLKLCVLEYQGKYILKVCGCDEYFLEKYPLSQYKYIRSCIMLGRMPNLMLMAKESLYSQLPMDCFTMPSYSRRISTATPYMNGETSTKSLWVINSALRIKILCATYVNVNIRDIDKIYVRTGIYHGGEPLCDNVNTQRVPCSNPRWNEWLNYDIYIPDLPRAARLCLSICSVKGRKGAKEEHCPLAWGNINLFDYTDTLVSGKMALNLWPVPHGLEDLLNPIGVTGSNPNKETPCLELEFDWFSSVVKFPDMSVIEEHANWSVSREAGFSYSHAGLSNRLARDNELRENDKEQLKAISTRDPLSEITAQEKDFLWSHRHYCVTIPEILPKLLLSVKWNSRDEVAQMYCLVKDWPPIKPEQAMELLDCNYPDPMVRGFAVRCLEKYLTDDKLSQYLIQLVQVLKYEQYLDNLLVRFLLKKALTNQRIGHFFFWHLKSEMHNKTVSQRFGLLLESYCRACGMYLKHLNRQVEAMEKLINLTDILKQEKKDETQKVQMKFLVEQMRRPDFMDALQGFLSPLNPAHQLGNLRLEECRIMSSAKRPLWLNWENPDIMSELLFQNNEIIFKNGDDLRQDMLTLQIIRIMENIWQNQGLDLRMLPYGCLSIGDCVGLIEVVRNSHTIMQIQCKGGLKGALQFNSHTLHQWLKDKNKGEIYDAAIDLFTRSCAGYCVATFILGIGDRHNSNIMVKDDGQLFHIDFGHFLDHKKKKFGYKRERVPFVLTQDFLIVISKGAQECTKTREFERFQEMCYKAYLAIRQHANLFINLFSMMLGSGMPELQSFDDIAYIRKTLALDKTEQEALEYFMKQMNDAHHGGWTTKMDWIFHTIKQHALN
Chain of MEK6 (P52564 whole entry): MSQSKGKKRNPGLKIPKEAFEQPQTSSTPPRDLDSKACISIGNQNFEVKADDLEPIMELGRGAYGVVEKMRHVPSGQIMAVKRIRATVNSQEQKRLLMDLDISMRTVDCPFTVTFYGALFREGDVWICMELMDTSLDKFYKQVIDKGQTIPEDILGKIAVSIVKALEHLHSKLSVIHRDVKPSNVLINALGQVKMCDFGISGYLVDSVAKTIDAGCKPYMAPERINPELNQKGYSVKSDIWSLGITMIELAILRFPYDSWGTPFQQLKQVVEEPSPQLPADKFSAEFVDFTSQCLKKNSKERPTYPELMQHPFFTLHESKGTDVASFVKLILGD
Chain of PHKG1 (Q16816 whole entry): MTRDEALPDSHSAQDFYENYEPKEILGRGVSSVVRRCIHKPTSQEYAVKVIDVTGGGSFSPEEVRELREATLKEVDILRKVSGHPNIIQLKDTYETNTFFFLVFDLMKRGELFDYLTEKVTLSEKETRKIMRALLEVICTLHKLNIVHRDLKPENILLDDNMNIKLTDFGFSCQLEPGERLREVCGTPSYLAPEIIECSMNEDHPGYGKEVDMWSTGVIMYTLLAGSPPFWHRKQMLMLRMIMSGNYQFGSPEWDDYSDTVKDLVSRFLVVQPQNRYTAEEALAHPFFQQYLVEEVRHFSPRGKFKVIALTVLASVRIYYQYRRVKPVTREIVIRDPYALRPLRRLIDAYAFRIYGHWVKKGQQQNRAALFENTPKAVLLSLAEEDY
Chain of PIK3CA(H1047L) (P42336 whole entry H1047L): as the sequence (P42336 whole entry E545A) above, with A545E, H1047L counted along it

SMILES	remaining binding at 10 µM (ULK3) [%]	remaining binding at 10 µM (RIPK1) [%]	remaining binding at 10 µM (RIOK1) [%]	remaining binding at 10 µM [1] [%]	remaining binding at 10 µM (AXL) [%]	remaining binding at 10 µM (MELK) [%]	remaining binding at 10 µM (BTK) [%]	remaining binding at 10 µM (PIK4CB) [%]	remaining binding at 10 µM (STK39) [%]	remaining binding at 10 µM (MRCKB) [%]	remaining binding at 10 µM (TEC) [%]	remaining binding at 10 µM (PHKG1) [%]	remaining binding at 10 µM (PIK3CA(H1047L)) [%]	remaining binding at 10 µM (NEK4) [%]	remaining binding at 10 µM (CDK2) [%]	remaining binding at 10 µM (HIPK4) [%]	remaining binding at 10 µM (CDK4-cyclinD3) [%]	remaining binding at 10 µM (BMPR1B) [%]	remaining binding at 10 µM (PAK3) [%]	remaining binding at 10 µM (ROS1) [%]	further results
COc1cc(N2CCC(N3CCN(C)CC3)CC2)ccc1Nc1ncc2c(n1)N(C)c1sc(C)nc1C(=O)N2 [Compound 3, 6-((2-methoxy-4-(4-(4-methylpiperazin-1-yl)piperidin-1-yl)phenyl)amino)-2,4-dimethyl-4,9-dihydro-10H-pyrimido[5,4-b]thiazolo[5,4-e][1,4]diazepin-10-one]	95	100	62	100	100	99	100	85	100	100	69	78	66	100	81	82	95	88	78	74	remaining binding at 10 µM (MUSK): 92%; remaining binding at 10 µM (AKT1): 89%; remaining binding at 10 µM (TAK1): 95%; remaining binding at 10 µM (EGFR(G719S)): 48%; remaining binding at 10 µM (MEK6): 100%; remaining binding at 10 µM (PIK3CA(E545A)): 84%; remaining binding at 10 µM (EPHB2): 53%; remaining binding at 10 µM (TRKB): 100%; remaining binding at 10 µM (EIF2AK1): 73%; remaining binding at 10 µM [2]: 9.7%; remaining binding at 10 µM (FYN): 73%; remaining binding at 10 µM (MAPKAPX5; MAPKAPX5, 10000 nM): 100%; remaining binding at 10 µM [3]: 93%; remaining binding at 10 µM [4]: 100%; remaining binding at 10 µM [5]: 81%
COc1cc(N2CCC(N3CCN(C)CC3)CC2)ccc1Nc1ncc2c(n1)N(C)c1sc(C)nc1C(=O)N2C [Compound 5, 6-((2-methoxy-4-(4-(4-methylpiperazin-1-yl)piperidin-1-yl)phenyl)amino)-2,4,9-trimethyl-4,9-dihydro-10H-pyrimido[5,4-b]thiazolo[5,4-e][1,4]diazepin-10-one]	97	96	100	100	97	88	100	100	77	100	100	84	80	100	100	100	100	94	92	75	remaining binding at 10 µM (MUSK): 100%; remaining binding at 10 µM (AKT1): 100%; remaining binding at 10 µM (TAK1): 100%; remaining binding at 10 µM (EGFR(G719S)): 100%; remaining binding at 10 µM (MEK6): 98%; remaining binding at 10 µM (PIK3CA(E545A)): 100%; remaining binding at 10 µM (EPHB2): 99%; remaining binding at 10 µM (TRKB): 100%; remaining binding at 10 µM (EIF2AK1): 100%; remaining binding at 10 µM [2]: 100%; remaining binding at 10 µM (FYN): 93%; remaining binding at 10 µM (MAPKAPX5; MAPKAPK5, 10000 nM): 93%; remaining binding at 10 µM [3]: 98%; remaining binding at 10 µM [4]: 99%; remaining binding at 10 µM [5]: 55%
